Ki data for four molecules are collected here from patent US5708018A, “2-aminoindans as selective dopamine D3 ligands” (Pharmacia & Upjohn Company, priority 1996, dated 1998).

Structures are written as SMILES. Like-named read-outs stand apart in the source and are kept apart here.

By Ki is commonly meant the dissociation constant of the complex between target and ligand, obtained from inhibition or displacement.

Assay [1] deals with T1, D3 (Rattus norvegicus, UniProt P19020).
T1 construct: expressed in transfected cells; host or cells: CHO-K1
Briefly: Competition binding, cloned mammalian D3 receptors expressed in CHO-K1 cells, [3H]-spiperone. The method, then:
(§1) Competition binding experiments employed eleven dilutions of test compounds competing with [^3 H]-5-(dipropylamino)-5,6-dihydro-4H-imidazo(4,5,1-ij)quinolin-2(1H)-one (R-enantiomer) (62 Ci/mmol, 2 nM) and [^3 H]-spiperone (107 Ci/mmol, 0.5 nM) for D2 and D3 binding sites, respectively. (Lahti, R. A., Eur. J. Pharmacol., 202, 289 (1991)) In each experiment, cloned mammalian receptors expressed in CHO-K1 cells were used. (Chio, C. L., Nature, 343, 266 (1990); and Huff, R. M., Mol. Pharmacol. (1993), in press). IC50 values were estimated by fitting the data to a one-site model by non-linear least squares minimization. Ki values were calculated with the Chen-Prushoff equation.

In assay [2] the target is T2, D2 (Rattus norvegicus, UniProt P61169).
T2 construct: expressed in transfected cells; host or cells: CHO-K1
Briefly: Competition binding, cloned mammalian D2 receptors expressed in CHO-K1 cells, [3H]-5-(dipropylamino)-5,6-dihydro-4H-imidazo(4,5,1-ij)quinolin-2(1H)-one (R-enantiomer). The conditions noted are these: radioligand 2 nM, IC50 from one-site fit, Ki by Chen-Prushoff equation. The procedure:
as §1

Where [3] appears, read: cloned mammalian receptors in CHO-K1 cells, [3H]-spiperone 0.5 nM, IC50 from one-site fit, Ki by Chen-Prushoff equation, read-out: D3 (ki).

T1 sequence (P19020 whole entry): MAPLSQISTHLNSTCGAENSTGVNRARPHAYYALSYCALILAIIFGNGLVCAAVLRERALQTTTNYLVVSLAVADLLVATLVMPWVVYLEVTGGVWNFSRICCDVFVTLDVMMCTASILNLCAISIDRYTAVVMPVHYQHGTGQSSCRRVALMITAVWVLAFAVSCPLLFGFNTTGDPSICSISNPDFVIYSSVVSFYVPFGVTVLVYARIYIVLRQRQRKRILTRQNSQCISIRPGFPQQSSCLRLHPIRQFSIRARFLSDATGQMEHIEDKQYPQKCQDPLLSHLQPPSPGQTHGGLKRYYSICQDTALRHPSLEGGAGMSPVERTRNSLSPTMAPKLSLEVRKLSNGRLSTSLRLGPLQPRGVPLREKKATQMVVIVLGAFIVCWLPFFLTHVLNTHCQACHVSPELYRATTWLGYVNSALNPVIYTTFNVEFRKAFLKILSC
T2 sequence (P61169 whole entry): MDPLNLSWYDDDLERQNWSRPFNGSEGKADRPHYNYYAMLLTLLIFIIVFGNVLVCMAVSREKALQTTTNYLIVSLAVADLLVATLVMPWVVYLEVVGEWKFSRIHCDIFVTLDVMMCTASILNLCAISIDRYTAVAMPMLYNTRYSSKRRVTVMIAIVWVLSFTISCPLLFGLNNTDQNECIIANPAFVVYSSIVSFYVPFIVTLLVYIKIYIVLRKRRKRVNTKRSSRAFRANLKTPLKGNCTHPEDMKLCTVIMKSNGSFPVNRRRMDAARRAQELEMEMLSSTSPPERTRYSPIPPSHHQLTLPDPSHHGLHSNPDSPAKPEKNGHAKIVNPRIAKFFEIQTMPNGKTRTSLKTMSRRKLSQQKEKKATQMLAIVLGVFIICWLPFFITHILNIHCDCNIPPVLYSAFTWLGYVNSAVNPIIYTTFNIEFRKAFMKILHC

For `CCCN(CCC)C1Cc2ccc(OS(=O)(=O)C(F)(F)F)cc2C1` (centres unmarked) [Example 2], the figures for the Ki in assay [1] and in assay [2] were 31 nM and 350 nM, respectively.
Regarding `CCCN(CCC)C1Cc2cc(O)c(C(=O)OC)cc2C1` (centres unmarked) [Example 10, 5-(carbomethoxy)-6-hydroxy-2-(di-N-propylamino)indan], the results for the Ki in assay [1] and in assay [2] were 6.5 nM and 121 nM, respectively.
`CCCN(CCC)C1Cc2ccc(OS(=O)(=O)c3ccc(C)cc3)cc2C1` (centres unmarked) [Example 17, Toluene-4-sulfonic acid 2-dipropylamino-indan-5-yl ester]: the Ki in assay [1] (setting [3]) turned out to be 3.7 nM; in assay [2], 108 nM.
For the molecule `CCCN(CCC)C1Cc2cc(OS(=O)(=O)c3ccc(C)cc3)c(OS(=O)(=O)c3ccc(C)cc3)cc2C1` [Example 32, 5,6 di-toluenesulfonyloxy-2-(di-n-propylamino)indan], the Ki in assay [1] (setting [3]) was determined as 45 nM; in assay [2] it was 291 nM.
